Measurements from paper PMC3493272, “CYP98A22, a phenolic ester 3’-hydroxylase specialized in the synthesis of chlorogenic acid, as a new tool for enhancing the furanocoumarin concentration in Ruta graveolens” (BMC Plant Biology, 2012).

How the values were obtained:
Type in all cases: biochemical
CYP98A22 [1] = biological target: T1, CYP98A22 (Ruta graveolens, UniProt H9LJF9); test: LC-MS of caffeoyl quinate formed by plant microsomes; details: 0.2 mM NADPH; 20 mM phosphate pH 7.0; 28 °C; 30 min; microsomes from N. benthamiana expressing the enzyme
T1 construct: full-length, 508 residues, untagged; transient expression in Nicotiana benthamiana leaves with TBSV P19, leaf microsomes
T1 sequence (H9LJF9 entry or part of it): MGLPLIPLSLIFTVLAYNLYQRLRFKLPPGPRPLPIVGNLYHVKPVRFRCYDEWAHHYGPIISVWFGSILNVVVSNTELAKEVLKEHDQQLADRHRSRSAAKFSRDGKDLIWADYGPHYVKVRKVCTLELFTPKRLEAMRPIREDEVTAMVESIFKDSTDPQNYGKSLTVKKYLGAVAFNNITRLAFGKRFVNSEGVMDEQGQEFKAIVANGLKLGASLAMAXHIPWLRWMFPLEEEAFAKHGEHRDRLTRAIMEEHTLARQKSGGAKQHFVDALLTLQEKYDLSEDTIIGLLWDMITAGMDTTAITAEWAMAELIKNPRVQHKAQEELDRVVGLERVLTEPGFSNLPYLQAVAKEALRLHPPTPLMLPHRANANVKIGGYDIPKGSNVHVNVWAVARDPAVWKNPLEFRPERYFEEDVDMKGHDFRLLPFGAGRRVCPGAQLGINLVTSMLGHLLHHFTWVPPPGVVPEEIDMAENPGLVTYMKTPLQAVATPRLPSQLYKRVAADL
From the text: LC-MS of caffeoyl quinate formed by plant microsomes on CYP98A22

CYP98A3 [2] = biological target: T2, CYP98A3 (Arabidopsis thaliana, UniProt O22203); test: HPLC and LC-MS of caffeoyl quinate formed by plant microsomes; details: 100 μM substrate; 0.2 mM NADPH; pH 7.0; 28 °C; microsomes from N. benthamiana expressing the enzyme
T2 construct: full-length, untagged; transient expression in Nicotiana benthamiana leaves with TBSV P19, leaf microsomes (also yeast WAT11 microsomes)
T2 sequence (O22203 1-508): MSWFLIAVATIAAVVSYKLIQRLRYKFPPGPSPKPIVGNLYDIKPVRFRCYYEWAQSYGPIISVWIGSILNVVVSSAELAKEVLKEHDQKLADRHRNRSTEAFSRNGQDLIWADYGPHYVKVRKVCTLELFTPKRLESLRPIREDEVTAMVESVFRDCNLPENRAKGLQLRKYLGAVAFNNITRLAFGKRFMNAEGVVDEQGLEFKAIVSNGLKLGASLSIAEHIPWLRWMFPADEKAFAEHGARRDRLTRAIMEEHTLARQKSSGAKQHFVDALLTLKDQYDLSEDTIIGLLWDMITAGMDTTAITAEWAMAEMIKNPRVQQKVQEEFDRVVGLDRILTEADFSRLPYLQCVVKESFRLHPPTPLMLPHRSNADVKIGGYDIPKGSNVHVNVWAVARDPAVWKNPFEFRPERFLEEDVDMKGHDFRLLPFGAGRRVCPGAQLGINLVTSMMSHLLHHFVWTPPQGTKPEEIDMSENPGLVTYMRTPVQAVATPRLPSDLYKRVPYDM

CYP98A3 [3] = biological target: T2, CYP98A3; test: HPLC and LC-MS of caffeoyl shikimate formed by plant microsomes; details: 100 μM substrate; 0.2 mM NADPH; pH 7.0; 28 °C; microsomes from N. benthamiana expressing the enzyme
CYP98A22 [4] = biological target: T1, CYP98A22; test: LC-MS of caffeoyl shikimate formed by plant microsomes; details: 0.2 mM NADPH; 20 mM phosphate pH 7.0; 28 °C; 30 min; microsomes from N. benthamiana expressing the enzyme
From the text: LC-MS of caffeoyl shikimate formed by plant microsomes on CYP98A22

SMILES	Km (CYP98A22 [1])	HPLC and LC-MS of caffeoyl quinate formed by plant microsomes (CYP98A3 [2])	HPLC and LC-MS of caffeoyl shikimate formed by plant microsomes (CYP98A3 [3])	Km (CYP98A22 [4])
O=C(/C=C/c1ccc(O)cc1)O[C@@H]1C[C@](O)(C(=O)O)C[C@@H](O)[C@H]1O [p-coumaroyl quinate]	7 ± 5 µM	both p-coumaroyl quinate and p-coumaroyl shikimate were hydroxylated to their caffeic counterparts		
O=C(/C=C/c1ccc(O)cc1)O[C@@H]1CC(C(=O)O)=C[C@@H](O)[C@H]1O [p-coumaroyl shikimate]			both p-coumaroyl quinate and p-coumaroyl shikimate were hydroxylated to their caffeic counterparts	24 ± 7 µM
